Results published in the METLIN SMRT retention time set (Domingo-Almenara et al. 2019).

Assay: gradient 5% acetonitrile 3 min, to 50% in 2 min, to 85% in 15 min, held 3 min, 100 µL/min
Details: column: Zorbax Extend-C18 2.1 x 50 mm; eluents: water / acetonitrile, 0.1% formic acid
How it was run: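 Pure standards were run in mixtures of ~100 molecules by HPLC coupled to a quadrupole time-of-flight mass spectrometer. The column was a Zorbax Extend-C18 (2.1 × 50 mm, 1.8 μm) at 100 μL/min, with water and acetonitrile each containing 0.1% formic acid, in positive and negative ionization mode. Dead and dwell volumes were 40 μL and 900 μL. Retention time was taken from computationally picked adduct peaks, each manually inspected, with data collected over 3 months.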

Row | Structure (SMILES) | RP-LC retention time [s]
1 | CC(=O)c1ccc(Oc2ccc(/C(C)=N\N=C(N)N)cc2)cc1 | 674
2 | Cc1ccc(CNC(=O)C2(C)Cn3nc(C(=O)NCCC(C)C)cc3C(=O)N2C)cc1 (centres undefined) | 754
3 | Cc1ccc(-c2ccc(-n3nc(C)c(S(=O)(=O)Nc4ccc5c(c4)OCCO5)c3C)nn2)cc1C | 1100
4 | O=C(Nc1cccc(C(F)(F)F)c1)N1CC(c2nc(-c3cccs3)no2)C1 | 917
5 | COc1ccc(C(=O)N2CCc3cn(C)c4cccc(c34)C2)cc1 | 920
6 | CCOCCCNC(=O)c1csc(-c2ccnc(N3CCCC3)c2)n1 | 592
7 | Fc1ccc(-c2nnc(Cc3nc(-c4ccccc4Cl)no3)o2)cc1 | 995
8 | COc1ccc2oc(-c3csc(NC(=O)c4ccc(N5C(=O)CCC5=O)cc4)n3)cc2c1 | 884
9 | O=C([C@H]1C[C@@H](F)CN1S(=O)(=O)c1ccc(Cl)cc1)N1CCOCC1 | 711
10 | CCN(Cc1ccccc1)C(=O)CN1C(=O)C2CCCCN2c2ccc(C(=O)N3CCCC3)cc21 (centres undefined) | 892
11 | COc1ccc(CNC(=O)C2(C)Cc3ccccc3C(=O)N2Cc2ccco2)cc1 (centres undefined) | 860
12 | Cc1cccc2c(C(=O)N3CCCC3)cc(N(C)C)nc12 | 605
13 | COc1cccc(CNC(=O)C2(C)CCCN(C(=O)Nc3ccc(C)cc3C)C2)c1 (centres undefined) | 930
14 | O=C(c1ccnc(N2CCNC(c3ccccc3)C2)c1)N1CCN(c2ncccn2)CC1 (centres undefined) | 608
15 | N#CCCSc1ccccc1NC(=O)c1cc2cc([N+](=O)[O-])ccc2s1 | 954
16 | Cc1ccc(C)c(NC(=O)Cn2c(C)cc(-c3nnc(C4CC4)o3)c2C)c1 | 851
17 | O=C(NCc1ccc(N2CCOCC2)cc1)c1cn2c(n1)CCCC2 | 586
18 | COc1ccc2c(c1)sc1ncc(C(=O)N3CCN(c4ccccn4)CC3)c(=O)n12 | 589
19 | O=C(COc1ccc(Cl)cc1Cl)Nc1ccc2c(c1)N(C(=O)C1CC1)CC2 | 987
20 | O=C1C2CCCN2C(=O)c2ccccc2N1CCc1ccccc1 (centres undefined) | 757
21 | O=C(c1ccc(Cl)c(Cl)c1)N1CCN(c2ccc(-c3ccco3)nn2)CC1 | 733
22 | CC(C)c1noc(-c2cc(=O)n(CC(=O)Nc3cccc(Cl)c3)c3ccccc23)n1 | 1070
23 | O=C(c1nc2ccccn2c1-c1ccc(Cl)cc1)N1CCCC1 | 712

Row | Structure (SMILES) | RP-LC retention time [s]
24 | CCCNC(=O)C1CCCN(c2nc3ncn(CC(=O)Nc4ccccc4Cl)c(=O)c3s2)C1 (centres undefined) | 738
25 | O=C(c1ccc(F)c(F)c1)N1CCN(c2nc(CN3CCOCC3)cs2)CC1 | 617
26 | O=C(C1CC1)N1CCC(c2noc(-c3ccccc3)n2)C1 (centres undefined) | 956
27 | CCc1noc(NC(C)=O)c1-c1ccc(C)c(S(=O)(=O)Nc2c(Cl)cc(OC)cc2OC)c1 | 827
28 | Clc1nc(NCCc2ccccc2)c2cn[nH]c2n1 | 827
29 | CCc1cccc(NC(=O)C2CCN(C(=O)c3ncn4c3COC(c3ccccc3)C4)CC2)c1 (centres undefined) | 879
30 | Cc1ccccc1-c1nsc(SCC(=O)NCc2ccco2)n1 | 892
31 | COc1ccc(CNC(=O)C2(C)CCCN(S(=O)(=O)c3ccccc3F)C2)cc1 (centres undefined) | 900
32 | CC(C)(NC(=O)C1CCCO1)c1nc2c(c(C(N)=O)n1)OCO2 (centres undefined) | 563
33 | CN(C)c1cc(C(=O)NC2CCCC2)c2ccccc2n1 | 619
34 | Cc1cc(C)cc(NC(=O)Cn2nc3c4cc(F)ccc4ncn3c2=O)c1 | 752
35 | CCN1C(=O)COc2ccc(-c3csc(NC(=O)CCC4CCCCC4)n3)cc21 | 934
36 | COc1ccc(N2CC(c3noc(-c4ccc(OC)c(OC)c4)n3)CC2=O)cc1 (centres undefined) | 839
37 | Cc1c(S(=O)(=O)CCNC(=O)NCc2ccc(F)cc2)c2ccccc2n1C | 737
38 | CC(=O)Oc1ccccc1C1=NN(C(C)=O)C(c2cccc(Br)c2)O1 (centres undefined) | 1040
39 | Cc1cc(C)cc(N2CCC(NC(=O)CC(C)(C)C)C2=O)c1 (centres undefined) | 877
40 | CCn1ncc(CN(C)C(=O)c2cn3ccccc3n2)c1C | 556
41 | CC(C)CC(=O)N1CCC(C(=O)N2CCCCCCNC(=O)CC2)CC1 | 640
42 | Cc1nc2c(sc3nc(-c4ccccc4)ccc32)c(=O)n1CC(=O)Nc1ccc(C(C)C)cc1 | 1200
43 | CC(=O)Nc1cccc(-c2nc(-c3ccc4nnn(C(C)C)c4c3)no2)c1 | 859
44 | CCCCn1cc(S(=O)(=O)Nc2ccc(CC)cc2)c2cccnc21 | 1040
45 | CCCN1C(=O)C2CCC(=O)N2c2ccc(C(=O)NC(C)C)cc21 (centres undefined) | 669
46 | O=S(=O)(c1ccc(-c2noc(COc3ccc(Cl)cc3)n2)cc1)N1CCOCC1 | 1090

Row | Structure (SMILES) | RP-LC retention time [s]
47 | Cc1ccc(C)c(NC(=O)CSc2nccc(N3CCN(c4cc(C)ccc4C)CC3)n2)c1 | 989
48 | Cc1cccc(N(C)S(=O)(=O)c2ccsc2-c2nc(C)no2)c1 | 978
49 | Cc1ccc(-c2csc(Nc3c(C)n(C)n(-c4ccccc4)c3=O)n2)cc1 | 788
50 | COC(=O)c1cccc(Nc2c(-c3cccc(Cl)c3)nc3cnccn23)c1 | 905
51 | CCNC(=O)c1n[nH]c2c1CN(C(=O)c1cc(F)ccc1F)CC2 | 648
52 | O=C(CCCS(=O)(=O)c1ccc(F)cc1)Nc1nnc(-c2ccno2)o1 | 637
53 | CCN1CCCn2nc(C3CCN(C(=O)c4cncc(Br)c4)CC3)cc2C1=O | 659
54 | Cc1cc(Br)ccc1NC(=O)CCn1c(=O)oc2ccccc21 | 823
55 | Cc1ccc(S(=O)(=O)N2CC3CN(C(=O)NCc4ccco4)CC(C2)O3)cc1 | 767
56 | COC1CCC12CCN(Cc1ccc(C#N)cc1)CC2 (centres undefined) | 597
57 | O=S(=O)(c1cc(-c2nnc(C3CC3)o2)co1)N1CCc2ccccc2C1 | 946
58 | CCn1c(=O)n(Cc2ccccc2Cl)c(=O)c2cnc(-c3ccc(OC)cc3)nc21 | 1010
59 | CCc1oc2cc(S(=O)(=O)Nc3ccc(S(=O)(=O)Nc4nccs4)cc3)ccc2c1C(=O)c1cc(Br)c(O)c(Br)c1 | 895
60 | COC(=O)c1c(-c2ccc(Cl)cc2)noc1N1CCN(c2ccccn2)CC1 | 1000
61 | O=C(NCCCN1CCC(Cc2ccccc2)CC1)C1CCCN(S(=O)(=O)N2CCOCC2)C1 (centres undefined) | 660
62 | O=C(CCC1CCN(S(=O)(=O)c2cccc(F)c2)CC1)NC1CC1 | 781
63 | Cc1cc(NC(=O)Cc2cc(-c3ccccc3F)on2)no1 | 772
64 | Cc1ccc2c(c1)N(S(C)(=O)=O)CCC(C(=O)Nc1ccc(OC(C)C)cc1)O2 (centres undefined) | 976
65 | COc1ccc(NC(=O)C2CCCN(S(=O)(=O)c3cc(-c4noc(C)n4)cs3)C2)cc1 (centres undefined) | 914
66 | COC(=O)c1ccc2c(=O)n(-c3ccc(Cl)cc3)c(N3CCN(C)CC3)nc2c1 | 670
67 | CCc1cc(=O)n(CC(=O)Nc2ccc(OC)c(OC)c2)c(N2CCOCC2)n1 | 646
68 | Cc1cccc2nc(-c3ccc(N4CCOCC4)cc3)c(Nc3ccc4c(c3)OCO4)n12 | 676
69 | Cc1ccccc1OCC(O)CN1CCN(c2ccc(Cl)cc2)CC1 (centres undefined) | 787

Row | Structure (SMILES) | RP-LC retention time [s]
70 | Cc1ccc(NC(=O)Cn2nc3c(Oc4cccc(F)c4)nccn3c2=O)cc1 | 880
71 | CCc1ccc(NC(=O)Cn2nc3cc(C)nc(Nc4ccc(F)c(C)c4)n3c2=O)cc1 | 1160
72 | Cc1ccc(N2CC(c3nc(-c4cccnc4)no3)CC2=O)cc1Cl (centres undefined) | 862
73 | Cc1nnc2sc(SCC(=O)Nc3cccc(C(F)(F)F)c3)nn2c1=O | 759
74 | CCc1ccc(NC(=O)Cn2c(=O)cc(-c3nc(C(C)C)no3)c3ccccc32)cc1 | 1100
75 | COC(=O)Cn1c(=O)c(=O)n(CC(=O)OC)c2ccccc21 | 640
76 | CC(C)c1cnn2c(NCc3ccccc3)cc(NCCCCCCN)nc12 | 653
77 | COc1ccc(N2CC(c3nc(-c4cccnc4)no3)CC2=O)cc1OC (centres undefined) | 665
78 | c1ccc([C@@H]2NCCO[C@H]2COc2ccccn2)cc1 | 595
79 | Cc1cc(OCC(=O)NCc2cccs2)nc(-c2ccc(F)cc2)n1 | 885
80 | CSc1ccccc1CN1CCC(CNC(=O)C(=O)NCc2cccs2)CC1 | 595
81 | Cc1[nH]nc(-c2ccc(S(=O)(=O)NC3CC3)o2)c1C | 723
82 | COc1cc(CNC(=O)C2=Cc3ccccc3OC2)cc(OC)c1OC | 835
83 | CCc1nc(-c2csc(S(=O)(=O)N3CCC(C(=O)Nc4ccc(C)c(Cl)c4)CC3)c2)no1 | 994
84 | CN(C)c1ncncc1N1CCC(C(=O)NC2CCCCC2)CC1 | 607
85 | CCC1CCCCN1C(=O)c1cnc2nc(C)ccc2c1Nc1cc(Cl)ccc1OC (centres undefined) | 731
86 | Cc1ccc(-c2ccc(-n3nc(C)c(S(=O)(=O)N4CCCC4)c3C)nn2)cc1 | 989
87 | COc1ccccc1NC(=O)NC1CCN(c2ccc(C)c(C)c2)C1=O (centres undefined) | 870
88 | COc1ccc(-c2nnc(-c3cccc(S(=O)(=O)N4CCCC4)c3)o2)cc1OC | 885
89 | CCc1ccc(NC(=O)Cc2c(C)nn(-c3nc(-c4ccc(C)cc4)cs3)c2C)cc1 | 1320
